Test results taken from patent US10660333B2, “Substituted 2-heterocyclylimidazolylcarboxamides as pesticides” (BAYER CROPSCIENCE AKTIENGESELLSCHAFT, priority 2016, dated 2020).
Where two headings read alike, the source gives them in different places.

Experiments:
Meloidogyne incognita = Meloidogyne incognita - test; assay type: in vivo; settings: 20 ppm, lettuce, after 14 days
Description: Meloidogyne incognita—Test
To produce a suitable active ingredient formulation, 1 part by weight of active ingredient is mixed with the stated amount of solvent and the concentrate is diluted to the desired concentration with water.
Vessels are filled with sand, active ingredient solution, an egg/larvae suspension of the southern root-knot nematode (Meloidogyne incognita) and lettuce seeds. The lettuce seeds germinate and the plants develop. The galls develop on the roots.
After 14 days, the nematicidal efficacy in % is determined by the formation of galls. 100% means that no galls were found; 0% means that the number of galls on the treated plants corresponds to the untreated control.

Myzus persicae [1] = assay: Myzus persicae - oral test; assay type: in vivo; settings: for pest or weed control at 4 ppm: Myzus persicae, 120 h, read-out: efficacy (aphids killed)
Description: (§1) To produce a suitable active ingredient formulation, 1 part by weight of active ingredient is dissolved with the specified parts by weight of solvent and made up to the desired concentration with water.
(§2) 50 μl of the active ingredient formulation are transferred into microtitre plates and made up to a final volume of 200 μl with 150 μl of IPL41 insect medium (33%+15% sugar). Subsequently, the plates are sealed with parafilm, which a mixed population of green peach aphids (Myzus persicae) within a second microtitre plate is able to puncture and imbibe the solution.
(§3) After 5 days, the efficacy in % is determined. 100% means that all the aphids have been killed; 0% means that no aphids have been killed.

Myzus persicae [2] = assay: Myzus persicae - spray test; assay type: in vivo; settings: for pest or weed control at 500 g/ha: Myzus persicae, foliar, 120 h, read-out: efficacy (aphids killed)
Description: Myzus persicae—Spray Test
(§4) To produce a suitable active ingredient formulation, 1 part by weight of active ingredient is dissolved with the specified parts by weight of solvent and made up to the desired concentration with water containing an emulsifier concentration of 1000 ppm. To produce further test concentrations, the formulation is diluted with emulsifier-containing water.
(§5) Discs of Chinese cabbage leaves (Brassica pekinensis) infested by all stages of the green peach aphid (Myzus persicae) are sprayed with an active ingredient formulation of the desired concentration.
as §3

[3] = log P by HPLC on reversed-phase (C18) columns, OECD Guideline 117; assay type: physicochemical; settings: for chromatographic logP: reversed-phase (C18) HPLC column
Tetranychus urticae = Tetranychus urticae - spray test, OP-resistant; assay type: in vivo; settings: 500 g/ha, bean leaf discs, after 6 days
Description: Tetranychus urticae—Spray Test, OP-Resistant
as §4
Discs of bean leaves (Phaseolus vulgaris) infested with all stages of the greenhouse red spider mite (Tetranychus urticae) are sprayed with an active ingredient formulation of the desired concentration.
After 6 days, the efficacy in % is determined. 100% means that all the spider mites have been killed; 0% means that no spider mites have been killed.

Aphis gossypii = Aphis gossypii - spray test (APHIGO S), cotton plants; assay type: in vivo; settings: 144 h, 6 dat, read-out: % efficacy
Description: Aphis gossypii—Spray Test (APHIGO S)
as §4, with “water. If the addition of ammonium salts or/and penetrants is required, these are each added in a concentration of 1000 ppm to the formulation solution.” for “water.”
Cotton plants (Gossypium hirsutum) heavily infested by the cotton aphid (Aphis gossypii) are sprayed with an active ingredient formulation of the desired concentration.
After the desired time, the kill in % is determined. 100% means that all the aphids have been killed; 0% means that no aphids have been killed.

Myzus persicae [4] = assay: Myzus persicae - spray test (MYZUPE), comparison with prior art; assay type: in vivo; settings: Myzus persicae, 120 h, 5 dat, read-out: % efficacy; for Emax at 100 g/ha: 100 g/ha (g of ai/ha)
Description: Myzus persicae—Spray Test (MYZUPE)
as §4, §5
(§6) After the desired period of time, the efficacy in % is determined. 100% means that all the aphids have been killed; 0% means that no aphids have been killed.

Boophilus microplus = Boophilus microplus - injection test; assay type: in vivo; settings: 20 μg/animal, injection into engorged adult female cattle ticks, after 7 days
Description: Boophilus microplus—Injection Test
Solvent: Dimethyl Sulphoxide
To produce a suitable active ingredient formulation, 10 mg of active ingredient are mixed with 0.5 ml of solvent and the concentrate is diluted to the desired concentration with solvent.
1 μl of the active ingredient solution is injected into the abdomen of 5 engorged adult female cattle ticks (Boophilus microplus). The animals are transferred into dishes and kept in a climate-controlled room.
Efficacy is assessed after 7 days by laying of fertile eggs. Eggs which are not visibly fertile are stored in a climate-controlled cabinet until the larvae hatch after about 42 days. An efficacy of 100% means that none of the ticks has laid any fertile eggs; 0% means that all the eggs are fertile.

Myzus persicae [5] = assay: Myzus persicae - drench test (MYZUPE D), savoy cabbage; assay type: in vivo; settings: Myzus persicae, soil, 240 h, 10 dat, read-out: % efficacy
Description: Myzus persicae—Drench Test (MYZUPE D)
To produce a suitable active ingredient formulation, 1 part by weight of active ingredient is mixed with the specified amounts of solvent and emulsifier, and the concentrate is diluted with water to the desired concentration, it being necessary to include the volume of soil which is drenched in the calculation. It should be ensured that a concentration of 40 ppm of emulsifier in the soil is not exceeded. To produce further test concentrations, water is used for dilution.
Savoy cabbage (Brassica oleracea) in pots with soil and infested by all stages of the green peach aphid (Myzus persicae) is watered with an active ingredient formulation of the desired concentration.
as §6

Myzus persicae [6] = assay: Myzus persicae - oral test (MYZUPE O), comparison with prior art; assay type: in vivo; settings: Myzus persicae, po, 120 h, 5 dat, read-out: % efficacy
Description: Myzus persicae—Oral Test (MYZUPE O)
as §1, §2, §6

Myzus persicae [7] = assay: Myzus persicae - spray test (MYZUPE S), bell pepper plants; assay type: in vivo; settings: Myzus persicae, 144 h, 6 dat, read-out: % efficacy
Description: Myzus persicae—Spray Test (MYZUPE S)
as §4, with “water. If the addition of ammonium salts or/and penetrants is required, these are each added in a concentration of 1000 ppm to the formulation solution.” for “water.”
Bell pepper plants (Capsicum annuum) severely infested with the green peach aphid (Myzus persicae) are treated by spraying with the active ingredient formulation in the desired concentration.
After the desired time, the kill in % is determined. 100% means that all the animals have been killed; 0% means that no animals have been killed.

[8] = HPLC RP C18, acidic range pH 2.7, 0.1% formic acid/acetonitrile, read-out: logP[a]
[9] = HPLC RP C18, neutral range pH 7.8, ammonium hydrogencarbonate/acetonitrile, read-out: logP[n]
[10] = 500 g/ha, Chinese cabbage leaf discs, after 5 days
[11] = HPLC RP C18, acidic range pH 2.7, 0.1% formic acid/acetonitrile
[12] = HPLC RP C18, neutral range pH 7.8, ammonium hydrogencarbonate/acetonitrile

For `CN(C(=O)c1cnc(C2=NOCCO2)n1C)c1cccnc1` [Example I-1-29, 2-(5,6-Dihydro-1,4,2-dioxazin-3-yl)-N,1-dimethyl-N-(pyridin-3-yl)-1H-imidazole-5-carboxamide], the “nematicidal efficacy (formation of galls)” value (Meloidogyne incognita) was 100%, the pest or weed control at 4 ppm (Myzus persicae [1]; po) was 100% and the pest or weed control at 500 g/ha (Myzus persicae [2]; in Brassica rapa) was 100%. For the same molecule, the chromatographic logP [3, 8] was 0.45 and the chromatographic logP [3, 9] was 0.76.

In the case of `CN(C(=O)c1cnc(C2CC(c3ccc(C(F)(F)F)cc3)=NO2)n1C)c1cccnc1` (stereo not shown) [Example I-1-23], the “efficacy (spider mites killed)” value (Tetranychus urticae) is reported as 100%, the “efficacy (aphids killed)” value (Myzus persicae [1]; 4 ppm, oral, after 5 days) is reported as 100% and the “efficacy (aphids killed)” value (Myzus persicae [2]; [10]) is reported as 90%. For the same molecule, the “logP[a]” value [3, 11] was 2.18 and the “logP[n]” value [3, 12] was 2.37.

For `CN(C(=O)c1cnc(C2CC(c3ccc([N+](=O)[O-])cc3)=NO2)n1C)c1cccnc1` (stereo not shown) [Example I-1-24], the “efficacy (spider mites killed)” value (Tetranychus urticae) was 100%, the “efficacy (aphids killed)” value (Myzus persicae [1]; 4 ppm, oral, after 5 days) was 100% and the “efficacy (aphids killed)” value (Myzus persicae [2]; [10]) was 90%. For the same molecule, the “logP[a]” value ([3]; pH 2.7) was 1.64 and the “logP[n]” value ([3]; pH 7.8) was 1.84.

`CN(C(=O)c1cnc(C2CC(c3ccccc3)=NO2)n1C)c1cccnc1` (stereo not shown) [Example I-1-7] gave an Emax at 0.16 ppm (Aphis gossypii) of 50%, an Emax at 0.8 ppm (Aphis gossypii) of 100% and an Emax at 100 g/ha (Myzus persicae [4]) of 90%. For the same molecule, the Emax at 500 g/ha (Myzus persicae [4]) was 90%, the pest or weed control at 4 ppm (Myzus persicae [1]; 4 ppm, oral, after 5 days) was 100% and the “efficacy (laying of fertile eggs)” value (Boophilus microplus) was 80%. It also gave a pest or weed control at 500 g/ha (Myzus persicae [2]; [10]) of 90%, an Emax at 0.16 ppm (Myzus persicae [5]) of 80% and an Emax at 0.8 ppm (Myzus persicae [5]) of 90%. It also gave an Emax at 0.8 ppm (Myzus persicae [6]) of 100%, an Emax at 4 ppm (Myzus persicae [6]) of 100% and an Emax at 0.16 ppm (Myzus persicae [7]) of 95%. For the same molecule, the Emax at 0.8 ppm (Myzus persicae [7]) was 100%, the chromatographic logP [3, 8] was 1.45 and the chromatographic logP [3, 9] was 1.72.

`CN(C(=O)c1cnc(C2CC(C3CC3)=NO2)n1C)c1cccnc1` (stereo not shown) [Example I-1-4] showed an Emax at 0.16 ppm (Aphis gossypii) of 90%, an Emax at 0.8 ppm (Aphis gossypii) of 100% and an Emax at 4 g/ha (Myzus persicae [4]; 4 g/ha (g of ai/ha)) of 70%. The Emax at 20 g/ha (Myzus persicae [4]; 20 g/ha (g of ai/ha)) was 100%, the Emax at 100 g/ha (Myzus persicae [4]) was 90% and the Emax at 500 g/ha (Myzus persicae [4]) was 90%. For the same molecule, the pest or weed control at 4 ppm (Myzus persicae [1]; 4 ppm, oral, after 5 days) was 100%, the pest or weed control at 500 g/ha (Myzus persicae [2]; [10]) was 90% and the Emax at 0.16 ppm (Myzus persicae [5]) was 95%. It also gave an Emax at 0.8 ppm (Myzus persicae [5]) of 100%, an Emax at 0.8 ppm (Myzus persicae [6]) of 100% and an Emax at 4 ppm (Myzus persicae [6]) of 100%. For the same molecule, the Emax at 0.16 ppm (Myzus persicae [7]) was 98%, the Emax at 0.8 ppm (Myzus persicae [7]) was 100% and the chromatographic logP [3, 8] was 0.85. It also gave a chromatographic logP [3, 9] of 1.15.

For `CN(C(=O)c1cnc(C2CC(c3cccc(C#N)c3)=NO2)n1C)c1cccnc1` (stereo not shown) [Example I-1-19, 2-[3-(3-Cyanophenyl)-4,5-dihydro-1,2-oxazol-5-yl]-N,1-dimethyl-N-(pyridin-3-yl)-1H-imidazole-5-carboxamide], the pest or weed control at 4 ppm (Myzus persicae [1]; 4 ppm, oral, after 5 days) was 100%, the “efficacy (laying of fertile eggs)” value (Boophilus microplus) was 95% and the pest or weed control at 500 g/ha (Myzus persicae [2]; [10]) was 100%. The chromatographic logP [3, 8] was 1.39 and the chromatographic logP [3, 9] was 1.63.

With `CN(C(=O)c1cnc(C2CC(c3ccncc3)=NO2)n1C)c1cccnc1` (stereo not shown) [Example I-1-28] the “efficacy (aphids killed)” value (Myzus persicae [1]; 4 ppm, oral, after 5 days) was 100%, the “efficacy (laying of fertile eggs)” value (Boophilus microplus) was 80% and the “efficacy (aphids killed)” value (Myzus persicae [2]; [10]) was 90%. The “logP[a]” value [3, 11] was 0.54 and the “logP[n]” value [3, 12] was 1.11.

With `CCN(C(=O)c1cnc(C2CC(c3ccccc3)=NO2)n1C)c1cccnc1` (stereo not shown) [Example I-1-8] the “efficacy (spider mites killed)” value (Tetranychus urticae) was 90%, the “efficacy (aphids killed)” value (Myzus persicae [1]; 4 ppm, oral, after 5 days) was 100% and the “efficacy (aphids killed)” value (Myzus persicae [2]; [10]) was 100%. The “logP[a]” value [3, 11] was 1.74 and the “logP[n]” value [3, 12] was 1.92.
